Several values for one entry are separate records, joined by “and”; a condition that tells them apart may be missing. Equal entries are not always repeated.
Experiments:
[1] = biological target: T1, 5-HT2A receptor (Homo sapiens, UniProt P28223); experiment: 5-HT2A receptor radioligand competition assay (SPA, [3H]ketanserin); type: binding; conditions: 1 nM [3H]ketanserin; membranes containing 5-HT2A; read-out: 5-HT2A, Ki
T1 construct: purchased PerkinElmer ES-313-M400UA
Experimental: Competition assays were performed as for 5-HT1A assays with the following differences. […] Determination of non-specific binding was carried out in the presence of […] of spiperone (S7395-250MG, Sigma-Aldrich). Equilibrium binding constant for ketanserin (Kd) was determined from saturation binding curves using the ‘one-site saturation binding analysis’ method in GraphPad PRISM software (Version 9.2.0).

[2] = tested on: human model (NT2) neurons; experiment: Neuroplastogenicity (neurite outgrowth) assay in NT2 neurons; type: cell-based; set-up: key: a positive (+) designation indicating strong evidence of enhanced neurite outgrowth in drug-treated NT2 cells compared to vehicle-treated cells; a negative (−) designation indicating weak or no evidence of enhanced neurite outgrowth in drug-treated NT2 cells compared to vehicle-treated cells; conditions: 1 or 10 μM, 48 h, visual inspection vs vehicle (0.1% DMSO)
Source text: Classic psychedelics such as psilocybin and DMT show potential to treat anxiety and depression, and it has been theorized that such long-term improvements arise because these drugs rapidly and lastingly stimulate neuroplasticity (Calder and Hasler, 2023, Neuropsychopharmacol. 48:104-112). Thus, it was of interest to determine the potential of new compounds as neuroplastogens. Herein, we assess the capacity of various compounds to enhance neurite outgrowth in human model (NT2) neurons.
Human NT2/D1 precursor cells were purchased from the American Type Culture Collection (ATCC, Manassas, VA, USA). Neuronal differentiation was carried out as previously described (Roloff et al., 2015, PloS ONE 10:e0118536) with minor modifications. Firstly, NT2/D1 cells were seeded in T-25 suspension culture flasks (REF #690190, Greiner bio-one, Germany). Each flask contains a minimum of 5×10^6 cells in 10 ml of DMEM/F12 supplemented with 10% fetal bovine serum (FBS), 1% penicillin and streptomycin and 10 μM retinoic acid (RA) medium to start neuronal differentiation. The cells were cultured for 3 days in free floating medium. At the end of the incubation cells were trypsinized and collected by centrifugation, mechanically dispersed, and counted. Counted cells were seeded along Poly D-Lysine (PDL) coated cover slips (12 mm; diameter round, Fisher Scientific; GG-12-PDL) containing a minimum of 0.1×10^5 cells in culture medium without RA. The next day culture medium was replaced with RA medium containing 2% of FBS. These cells cultured for 5 days and two days later, RA medium was changed.
After cells had successfully attached and established along coverslips, the RA medium was replaced with new medium containing 2% FBS and one of the following: (1) test compound (1 or 10 μM), (2) RhoK (ROCK) inhibitor Y-27632 (1 μM) as a positive control (Dihydrochloride; Sigma-Aldrich) (Roloff et al., 2015, PloS ONE 10:e0118536); (3) DMT (1 or 10 μM) as a positive control (Calder and Hasler, 2023, Neuropsychopharmacol. 48:104-112), or (4) vehicle (0.1% DMSO) as a negative control. These cells were incubated for 48 hours under standard conditions (370C, 5% CO2). The cells cultured along coverslips were collected after 48 hours of treatment. The coverslips washed with calcium chloride and magnesium chloride-free phosphate buffered saline (PBS) pH 7.4 (Gibco, #70011-044) and fixed in paraformaldehyde (PFA) 4% in PBS (#J61899, thermoscientific) for 15 min at room temperature (RT) and washed three times with 0.01% of Triton-X100 in PBS (PBST) to remove remaining PFA and to permeabilize the cells. Non-specific binding sites were blocked with 5% of Bovine Serum Albumin (BSA) solution (#9048-46-8, Millipore) in PBST for 60 minutes at RT. Rabbit monoclonal antibody β-III-tubulin (1:5,000, ab52623, Abcam) was applied overnight (O/N) at 4° C. Next day cells are washed three times in PBST, neurons were incubated with secondary antibody Donkey anti-rabbit IgG(H+L) Alexa Fluor™ Plus488 (1:5000 #A32790, Invitrogen) for 1 hour at RT. These coverslips were mounted on Gluoromount-G™, with 4′6-diamidino-2′henylindoldihydrochloride (DAPI) (#E141818, Invitrogen). The immunofluorescence images were analyzed using an Olympus VS110 slide scanner microscope.
B-III-Tubulin immunofluorescence was quantified using ImageJ. Briefly, Corrected Total Cell Fluorescence (CTCF) was acquired for at least ˜8-10 representative cells, where CTCF=Integrated Density−[Area of selected cell*Mean Fluorescence of background]. The CTCF values, referred to herein as ‘signal intensities’, were used to calculate overall means±SD for each treatment. One-Way ANOVA was used to compare treatments. Further, the mean of each treatment was compared with the mean of the control treatment (RA-differentiated cells treated with vehicle, 0.1% DMSO) using Dunnett's multiple comparison procedure. […]

[3] = tested on: C57BL/6 mice; experiment: Mouse Head Twitch Response (HTR) assay to assess hallucinogenic potential; type: in vivo; conditions: for mean HTR / HTR compared with the HTR response for 5-Br-DMT (one-way ANOVA, Dunnett): 3 mg/kg i.p.; for mean HTR: 0-15 min interval (preliminary screening); for HTR compared with the HTR response for 5-Br-DMT (one-way ANOVA, Dunnett): alpha 0.05; for HTR: 0-15 min (dose curve)
Experimental: All experiments were approved by the University of Calgary Animal Care and Use Committee in accordance with Canadian Council on Animal Care guidelines. C57BL/6-Elite mixed sex mice were obtained from Charles River (8 weeks old). Until the first experiment, mice were group-housed, then single-housed on a 12:12 h light/dark schedule (lights on at 07:00 hours) with ad libitum access to food and water. Before any behavioral screening, mice were handled and exposed to the testing chamber for at least 5 min each day for three successive days and habituated to the experimental room 1 h before testing. The testing chamber was cleaned with a 70% ethanol solution between experiments to eliminate odor from other mice. Drug compounds (100 mM in DMSO) were diluted in sterile excipient (10% EtOH/15% PEG400 in ddH2O) to 3 mg/kg (preliminary screening) or 0.5, 2, 4, 7, and 10 mg/kg (dose-curve analysis) and administered using intraperitoneal (i.p.) drug injections. […] HTR was analyzed during the 0-to-15-minute window following drug administration. […] Mean HTR between 10 and 5 signifies reduced hallucinogenic potential relative to positive controls.

T1 sequence (P28223 whole entry): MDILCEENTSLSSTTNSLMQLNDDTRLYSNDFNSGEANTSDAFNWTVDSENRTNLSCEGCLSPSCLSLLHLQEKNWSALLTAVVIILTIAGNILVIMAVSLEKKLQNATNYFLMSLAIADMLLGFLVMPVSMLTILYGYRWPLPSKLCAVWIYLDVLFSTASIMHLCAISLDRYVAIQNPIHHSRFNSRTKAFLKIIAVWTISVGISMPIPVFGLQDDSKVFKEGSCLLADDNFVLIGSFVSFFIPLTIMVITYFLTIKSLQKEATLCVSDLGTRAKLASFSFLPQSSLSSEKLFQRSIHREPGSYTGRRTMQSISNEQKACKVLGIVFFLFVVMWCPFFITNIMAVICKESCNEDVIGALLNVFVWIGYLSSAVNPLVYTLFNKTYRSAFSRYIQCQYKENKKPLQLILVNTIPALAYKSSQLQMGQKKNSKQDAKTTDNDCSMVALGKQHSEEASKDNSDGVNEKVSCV

With `CN(C)CCc1c[nH]c2cc(N3CCCC3)cc(F)c12` [Compound (XVIII)] the Ki [1] was 6.13 µM, the “Evidence of neurite outgrowth: Yes (+) or No (−)” value (“Evidence … (+) or No (−)” below) [2] was “+” and the “mean HTR” value [3] was 5.25. The “HTR compared with the HTR response for 5-Br-DMT (one-way ANOVA, Dunnett)” value (shortened to “HTR compared with the HTR response”) [3] was “not statistically significantly higher” and the HTR ([3]; 10 mg/kg i.p. (maximum dose)) was greater than 20.
With `CN(C)CCc1c[nH]c2cc(N3CCC3)ccc12` [Compound (XII)] the Ki [1] was 23.7 µM, the “Evidence … (+) or No (−)” value [2] was “+” and the “mean HTR” value [3] was 6.25. For the same compound, the “HTR compared with the HTR response” value [3] was “not statistically significantly higher”, the HTR ([3]; 7 mg/kg i.p.) was roughly 20 and the HTR ([3]; 10 mg/kg i.p. (maximum dose)) was roughly 12.
In the case of `CN(C)CCc1c[nH]c2cc(F)cc(N3CCOCC3)c12` [Compound (XV)], the Ki [1] is reported as 0.72 µM, the “Evidence … (+) or No (−)” value [2] is reported as “+” and the “mean HTR” value [3] is reported as 5.0±0.82. The “HTR compared with the HTR response” value [3] was “not statistically significantly higher” and the “HTR over increasing dosage” value ([3]; 0.5-10 mg/kg i.p., 0-15 min) was “remains low”.
With `CC(C)N(C)CCc1c[nH]c2cc(N3CCOCC3)c(F)cc12` [Compound (XVII)] the Ki [1] was 8.3 µM and 8.34 µM, the “Evidence … (+) or No (−)” value [2] was “+” and the “mean HTR” value [3] was 22.25. For the same compound, the HTR ([3]; 10 mg/kg i.p. (maximum dose)) was roughly 40.
